# Test results as given in publication PMC6822569 (Journal of medicinal chemistry, 2019).
# Where two headings read alike, the source gives them in different places.
# What was measured:
# [1] = In vivo pharmacokinetic study, single oral dose in mice, plasma and liver
# P. falciparum Dd2 [2] = experiment: microbe, parasite or virus in culture; assay type: cell-based
# P. falciparum Dd2 [3] = experiment: 72 h SYBR Green I drug susceptibility, parental Dd2; assay type: cell-based; conditions: Plasmodium falciparum, DD2, 72 h, read-out: Dd2 IC50
# P. yoelii = experiment: In vivo blood stage efficacy, modified 4-day test in murine P. yoelii model; conditions: after 80 mg/kg × 4 days oral dosing
# P. falciparum Tm90-C2B = experiment: In vitro blood stage antimalarial activity, MSF assay, strain Tm90-C2B; assay type: cell-based; conditions: read-out: blood stage IC50 vs P. falciparum Tm90-C2B; Tm90-C2B: Atovaquone resistant clinical isolate
# HepG2 = HepG2 cytotoxicity assay; assay type: cell-based, human
# [4] = biological target: hERG (human-ether-a-go-go-related gene) potassium channel (Homo sapiens, UniProt Q12809); experiment: hERG potassium channel current, automatic parallel patch clamp; assay type: cell-based
# [5] = In vitro metabolic stability, human liver microsomes; conditions: 1 μM
# [6] = male, ICR, mouse, liver, po, 80 mg/kg
# [7] = Plasmodium falciparum, DD2, read-out: blood stage IC50 vs P. falciparum Dd2
# [8] = plasma, single oral dose of 80 mg/kg, mice
# [9] = read-out: blood stage IC50 vs P. falciparum Dd2, Dd2: MDR strain with Old World genetic background
# [10] = liver, single oral dose of 80 mg/kg, mice
# Sequence of hERG (human-ether-a-go-go-related gene) potassium channel (Q12809 whole entry): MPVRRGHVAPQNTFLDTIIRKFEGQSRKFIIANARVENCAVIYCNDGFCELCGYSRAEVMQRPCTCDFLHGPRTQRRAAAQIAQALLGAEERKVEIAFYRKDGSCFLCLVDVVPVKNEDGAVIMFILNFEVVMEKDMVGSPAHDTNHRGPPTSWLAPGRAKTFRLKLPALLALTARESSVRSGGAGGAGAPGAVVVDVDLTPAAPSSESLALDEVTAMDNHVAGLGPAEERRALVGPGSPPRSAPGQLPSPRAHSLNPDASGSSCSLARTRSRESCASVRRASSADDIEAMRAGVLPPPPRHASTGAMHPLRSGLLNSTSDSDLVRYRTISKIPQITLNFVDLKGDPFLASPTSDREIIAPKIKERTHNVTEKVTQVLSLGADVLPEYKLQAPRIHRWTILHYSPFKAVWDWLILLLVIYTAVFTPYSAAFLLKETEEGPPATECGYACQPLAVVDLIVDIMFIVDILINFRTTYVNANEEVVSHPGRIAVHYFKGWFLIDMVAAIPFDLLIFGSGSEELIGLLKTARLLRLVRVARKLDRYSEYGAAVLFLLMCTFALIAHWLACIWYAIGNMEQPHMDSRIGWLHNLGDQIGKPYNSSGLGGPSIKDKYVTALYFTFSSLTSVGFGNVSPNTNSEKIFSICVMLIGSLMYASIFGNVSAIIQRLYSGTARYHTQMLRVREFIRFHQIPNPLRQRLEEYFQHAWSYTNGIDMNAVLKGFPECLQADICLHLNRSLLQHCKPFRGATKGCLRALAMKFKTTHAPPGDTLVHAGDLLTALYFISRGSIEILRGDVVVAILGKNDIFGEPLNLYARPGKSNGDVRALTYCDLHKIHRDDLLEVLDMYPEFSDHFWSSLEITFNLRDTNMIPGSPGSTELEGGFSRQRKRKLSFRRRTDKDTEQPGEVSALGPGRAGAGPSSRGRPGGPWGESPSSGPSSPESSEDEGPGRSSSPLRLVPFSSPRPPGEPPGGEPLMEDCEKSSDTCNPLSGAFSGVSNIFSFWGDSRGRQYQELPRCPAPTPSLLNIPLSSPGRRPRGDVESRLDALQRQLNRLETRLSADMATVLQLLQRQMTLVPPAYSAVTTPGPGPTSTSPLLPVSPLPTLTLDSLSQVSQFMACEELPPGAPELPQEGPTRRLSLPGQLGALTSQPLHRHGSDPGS
compound,measurement,setting,value
"CCCN(CCC)CCCOc1ccc2c(=O)c3c(F)cc(F)cc3[nH]c2c1 [compound 52, 6-(3-(Dipropylamino)propoxy)-1,3-difluoroacridin-9(10H)-one]",CL/F,[1]; [6],5.8 mL/min/kg
same,Vd/F,[1]; [6],3.48 L/kg
"CCN(CC)CCOc1ccc2c(=O)c3c(F)cc(F)cc3[nH]c2c1 [compound 46, 6-(2-(Diethylamino)ethoxy)-1,3-difluoroacridin-9(10H)-one]",IC50,P. falciparum Dd2 [2]; [7],16 nM
"O=c1c2ccc(OCCNC34CC5CC(CC(C5)C3)C4)cc2[nH]c2ccc(Cl)c(Cl)c12 [compound 81, 6-(2-((Adamantan-1-yl)amino)ethoxy)-1,2-dichloroacridin-9(10H)-one]",IC50,P. falciparum Dd2 [2]; [7],77 nM
"O=c1c2ccc(OCCCCl)cc2[nH]c2ccc(Cl)c(Cl)c12 [compound 71, 1,2-Dichloro-6-(3-chloropropoxy)acridin-9(10H)-one]",IC50,P. falciparum Dd2 [2]; [7],17 nM
"CCN(CC)CCOc1ccc2[nH]c3cc(Cl)ccc3c(=O)c2c1 [compound 128, 6-chloro-2-(2-(diethylamino)ethoxy)acridin-9(10H)-one]",IC50,P. falciparum Dd2 [2]; [7],132 nM
"CCN(CC)CCOc1ccc2c(=O)c3c(Cl)c(Cl)ccc3[nH]c2c1 [compound 73, 1,2-Dichloro-6-(2-(diethylamino)ethoxy)acridin-9(10H)-one]",IC50,P. falciparum Dd2 [2]; [7],12 nM
same,IC50,P. falciparum Dd2 [3],40 ± 5.5 nM
"CCCN(CCC)CCOc1ccc2c(=O)c3c(F)cc(F)cc3[nH]c2c1 [compound 48, 6-(2-(Dipropylamino)ethoxy)-1,3-difluoroacridin-9(10H)-one]",CL/F,[1]; [6],15.5 mL/min/kg
same,Vd/F,[1]; [6],14 L/kg
same,CL/F,[1]; [8],407.77 mL/min/kg
same,cure in murine P. yoelii model,P. yoelii,curative
"1,4-Dichloro-6-(3-(diethylamino)propoxy)acridin-9(10H)-one [compound 100]",IC50,P. falciparum Dd2 [2]; [9],1300 nM
same,IC50,P. falciparum Tm90-C2B,> 2500 nM
same,IC50,HepG2,77000 nM
same,selectivity index (SI) (D6),HepG2; SI = IC50 (cytotoxicity)/IC50 (D6),152
"CN1CCCC1CCOc1ccc2c(=O)c3c(Cl)c(Cl)ccc3[nH]c2c1 (stereo not shown) [compound 76, 1,2-Dichloro-6-(2-(1-methylpyrrolidin-2-yl)ethoxy)acridin-9(10H)-one]",IC50,P. falciparum Dd2 [2]; [7],172 nM
"1,2-Dichloro-6-(3-(dibutylamino)propoxy)acridin-9(10H)-one [compound 75]",IC50,P. falciparum Dd2 [2]; [9],0.041 nM
same,hERG activity (% inhibition at 10 uM),[4],57%
same,AUCinf,[1]; [10],169389 ng·h/mL
same,AUClast,[1]; [10],167981 ng·h/mL
same,CL/F,[1]; [10],8.95 mL/min/kg
same,Cmax,[1]; [10],21269 ng/mL
same,MRT b,[1]; [10],10.08 h
same,Tmax,[1]; [10],2.75 h
same,Vz/F,[1]; [10],3.605 L/kg
same,t1/2,[1]; [10],4.63 h
same,AUCinf,[1]; [8],3239 ng·h/mL
same,AUClast,[1]; [8],3049 ng·h/mL
same,CL/F,[1]; [8],431.32 mL/min/kg
same,Cmax,[1]; [8],226 ng/mL
same,MRT b,[1]; [8],6.96 h
same,Tmax,[1]; [8],2.75 h
same,Vz/F,[1]; [8],223.865 L/kg
same,t1/2,[1]; [8],6.00 h
same,IC50,P. falciparum Tm90-C2B,228 nM
same,cure in murine P. yoelii model,P. yoelii,curative
same,"metabolic stability vs microsomes t1/2, human",[5],0.2 h
same,IC50,"HepG2; read-out: cytotoxicity IC50 vs HepG2, human hepatocarcinoma HepG2 cells",54500 nM
"CCN(CC)CCOc1ccc2c(=O)c3ccc(Cl)cc3[nH]c2c1 [compound 7, 3-chloro-6-(2-(diethylamino)ethoxy)acridin-9(10H)-one]",IC50,P. falciparum Dd2 [2]; [7],41 nM
"CC(C)(C)NCCOc1ccc2c(=O)c3c(Cl)c(Cl)ccc3[nH]c2c1 [compound 78, 6-(2-(tert-Butylamino)ethoxy)-1,2-dichloroacridin-9(10H)-one]",IC50,P. falciparum Dd2 [2]; [7],679 nM
"CCCN(CCC)CCOc1ccc2c(=O)c3c(Cl)c(Cl)ccc3[nH]c2c1 [compound 74, 1,2-Dichloro-6-(2-(dipropylamino)ethoxy)acridin-9(10H)-one]",IC50,P. falciparum Dd2 [2]; [7],0.05 nM
same,CL/F,[1]; [6],2.45 mL/min/kg
same,Vd/F,[1]; [6],0.392 L/kg
same,cure in murine P. yoelii model,P. yoelii,curative
"COc1cc(NC(C)CCCN)c2ncccc2c1 (stereo not shown) [Primaquine, reference compound]",Vd/F,"[1]; male, ICR, mouse, in vivo, po, 80 mg/kg",4.42 L/kg
